From ChEMBL document CHEMBL4373744, “Modifying the lipophilic part of phenylthiazole antibiotics to control their drug-likeness” (Eur J Med Chem, 2020)
≈ marks a conversion by molar mass, not a printed value. Calls of active or inactive are those of the source. The rule behind the calls is not given here.

Tests used:
[1] = system: Staphylococcus epidermidis; test: Antimicrobial activity against methicillin-resistant Staphylococcus epidermidis NRS101 by broth liquid microdilution method; format: functional
Staphylococcus aureus [2] = test: microbe, parasite or virus in culture; conditions: NRS 385
Description: Antimicrobial activity against methicillin-resistant Staphylococcus aureus NRS 385 by broth liquid microdilution method

Staphylococcus aureus [3] = test: microbe, parasite or virus in culture; conditions: NRS 107
Description: Antimicrobial activity against methicillin-sensitive Staphylococcus aureus NRS 107 by broth liquid microdilution method

Listeria monocytogenes = test: Antimicrobial activity against Listeria monocytogenes ATCC 19111 by broth liquid microdilution method; format: functional
Staphylococcus aureus [4] = test: Antimicrobial activity against vancomycin-resistant Staphylococcus aureus 12 by broth liquid microdilution method; format: functional
Staphylococcus aureus [5] = test: Bactericidal activity against methicillin-resistant Staphylococcus aureus USA400 assessed as reduction in number of colony forming units at 5 times MIC incubated for 24 hrs by aliquots transfer to tryptic soy agar and grown for 18 to 20 hrs by Time-kill assay; format: functional, organism-based
Staphylococcus aureus [6] = test: Bactericidal activity against methicillin-resistant Staphylococcus aureus USA400 assessed as 3 log reduction in number of colony forming units at 5 times MIC incubated for 10 hrs by aliquots transfer to tryptic soy agar and grown for 18 to 20 hrs by Time-kill assay relative to control; format: functional; set-up: scale not given: the % may be the effect or the level left
Staphylococcus aureus [7] = test: Antimicrobial activity against vancomycin-resistant Staphylococcus aureus 10 by broth liquid microdilution method; format: functional
Escherichia coli [8] = test: Antimicrobial activity against Escherichia coli JW55031 harboring deltatolC mutant by broth liquid microdilution method; format: functional
Staphylococcus aureus [9] = test: microbe, parasite or virus in culture; conditions: ATCC 6538
Description: Antimicrobial activity against methicillin-sensitive Staphylococcus aureus ATCC 6538 by broth liquid microdilution method

Enterococcus faecium = test: Antimicrobial activity against vancomycin-resistant Enterococcus faecium ATCC 700221 by broth liquid microdilution method; format: functional
Streptococcus pneumoniae [10] = test: Antimicrobial activity against cephalosporin-resistant Streptococcus pneumoniae ATCC 51916 by broth liquid microdilution method; format: functional
Staphylococcus aureus [11] = test: microbe, parasite or virus in culture; conditions: NRS384
Description: Antimicrobial activity against methicillin-resistant Staphylococcus aureus NRS384 by broth liquid microdilution method

Streptococcus pneumoniae [12] = test: Antimicrobial activity against methicillin-resistant Streptococcus pneumoniae ATCC 700677 by broth liquid microdilution method; format: functional
Staphylococcus aureus [13] = test: microbe, parasite or virus in culture; conditions: NRS123
Description: Antimicrobial activity against methicillin-resistant Staphylococcus aureus NRS123 by broth liquid microdilution method

Staphylococcus aureus [14] = test: microbe, parasite or virus in culture; conditions: NRS119
Description: Antimicrobial activity against methicillin-resistant Staphylococcus aureus NRS119 by broth liquid microdilution method

Staphylococcus aureus [15] = test: microbe, parasite or virus in culture; conditions: NRS 386
Description: Antimicrobial activity against methicillin-resistant Staphylococcus aureus NRS 386 by broth liquid microdilution method

Enterococcus faecalis = test: microbe, parasite or virus in culture; conditions: ATCC 51299
Escherichia coli [16] = test: Antimicrobial activity against Escherichia coli BW25113 by broth liquid microdilution method; format: functional
J774 = test: Cytotoxicity against mouse J774 cells assessed as reduction in cell viability at 4 to 8 ug/ml incubated for 24 hrs by MTS assay; format: cell-based; conditions: j774, 24 h
Staphylococcus aureus [17] = test: Antibiofilm activity against methicillin-resistant Staphylococcus aureus USA300 at 2 times MIC incubated for 24 hrs by crystal violet staining based assay relative to control; format: functional
Staphylococcus aureus [18] = test: Antibiofilm activity against methicillin-resistant Staphylococcus aureus USA300 at 4 times MIC incubated for 24 hrs by crystal violet staining based assay relative to control; format: functional
[19] = Clearance in Sprague-Dawley rat at 50 mg/kg, po via gavage administered as a single dose measured upto 24 hrs by LC/MS/MS analysis; format: ADME, organism-based; conditions: in vivo
Staphylococcus aureus [20] = test: Antimicrobial activity against methicillin-resistant Staphylococcus aureus USA400 infected in mouse J774 cells assessed as reduction in […] bacterial count at 4 times MIC incubated for 24 hrs relative to control; format: functional; set-up: scale not given: the % may be the effect or the level left
[21] = Volume of distribution in Sprague-Dawley rat at 50 mg/kg, po via gavage administered as a single dose measured upto 24 hrs by LC/MS/MS analysis; format: ADME, organism-based; conditions: in vivo
Staphylococcus aureus [22] = test: Antimicrobial activity against methicillin-resistant Staphylococcus aureus USA400 infected in mouse J774 cells assessed as reduction in […] bacterial count at 2 times MIC incubated for 24 hrs relative to control; format: functional; set-up: scale not given: the % may be the effect or the level left
[23] = Half life in Sprague-Dawley rat at 50 mg/kg, po via gavage administered as a single dose measured upto 24 hrs by LC/MS/MS analysis; format: ADME, organism-based; conditions: in vivo
Staphylococcus aureus [24] = test: Bactericidal activity against methicillin-resistant Staphylococcus aureus USA400 assessed as reduction in number of colony forming units at 5 times MIC incubated for 12 hrs by aliquots transfer to tryptic soy agar and grown for 18 to 20 hrs by Time-kill assay relative to control; format: functional; set-up: scale not given: the % may be the effect or the level left
Staphylococcus aureus [25] = test: Bactericidal activity against methicillin-resistant Staphylococcus aureus USA400 assessed as 3 log reduction in number of colony forming units at 5 times MIC incubated for 10 hrs by aliquots transfer to tryptic soy agar and grown for 18 to 20 hrs by Time-kill assay; format: functional, organism-based
[26] = AUC in Sprague-Dawley rat at 50 mg/kg, po via gavage administered as a single dose measured upto 24 hrs by LC/MS/MS analysis; format: ADME, organism-based; set-up: time < 24 hr, dose 50 mg/kg, route oral; conditions: in vivo
Staphylococcus aureus [27] = test: Antibiofilm activity against methicillin-resistant Staphylococcus aureus USA300 incubated for 24 hrs by crystal violet staining based assay; format: functional, organism-based
[28] = Cmax in Sprague-Dawley rat at 50 mg/kg, po via gavage administered as a single dose measured upto 24 hrs by LC/MS/MS analysis; format: ADME, organism-based; set-up: dose 50 mg/kg, route oral; conditions: in vivo
[29] = Tmax in Sprague-Dawley rat at 50 mg/kg, po via gavage administered as a single dose measured upto 24 hrs by LC/MS/MS analysis; format: ADME, organism-based; conditions: in vivo
[30] = Aqueous solubility of compound in pH 6.8 phosphate buffer; format: physicochemical

C/C(=N\NC(=N)N)c1sc(-c2ccc(C#CCCN3CCSC3)cc2)nc1C
MBC [1]: 8 µg/mL (≈ 19.4 µM) | MIC [1]: 2 µg/mL (≈ 4.85 µM) | MBC (Staphylococcus aureus [2]): 16 µg/mL (≈ 38.8 µM) | MIC (Staphylococcus aureus [2]): 4 µg/mL (≈ 9.69 µM) | MBC (Staphylococcus aureus [3]): 16 µg/mL (≈ 38.8 µM) | MIC (Staphylococcus aureus [3]): 8 µg/mL (≈ 19.4 µM) | MBC (Listeria monocytogenes): 32 µg/mL (≈ 77.6 µM) | MIC (Listeria monocytogenes): 4 µg/mL (≈ 9.69 µM) | MBC (Staphylococcus aureus [4]): 32 µg/mL (≈ 77.6 µM) | MIC (Staphylococcus aureus [4]): 4 µg/mL (≈ 9.69 µM) | Activity (Staphylococcus aureus [5]): Active | Activity (Staphylococcus aureus [6]): 99.9% | MBC (Staphylococcus aureus [7]): 32 µg/mL (≈ 77.6 µM) | MIC (Staphylococcus aureus [7]): 4 µg/mL (≈ 9.69 µM) | MIC (Escherichia coli [8]): 16 µg/mL (≈ 38.8 µM) | MBC (Staphylococcus aureus [9]): 32 µg/mL (≈ 77.6 µM) | MIC (Staphylococcus aureus [9]): 4 µg/mL (≈ 9.69 µM) | MBC (Enterococcus faecium): 16 µg/mL (≈ 38.8 µM) | MIC (Enterococcus faecium): 4 µg/mL (≈ 9.69 µM) | MBC (Streptococcus pneumoniae [10]): 32 µg/mL (≈ 77.6 µM) | MIC (Streptococcus pneumoniae [10]): 8 µg/mL (≈ 19.4 µM) | MBC (Staphylococcus aureus [11]): 32 µg/mL (≈ 77.6 µM) | MIC (Staphylococcus aureus [11]): 4 µg/mL (≈ 9.69 µM) | MBC (Streptococcus pneumoniae [12]): 32 µg/mL (≈ 77.6 µM) | MIC (Streptococcus pneumoniae [12]): 8 µg/mL (≈ 19.4 µM) | MBC (Staphylococcus aureus [13]): 32 µg/mL (≈ 77.6 µM) | MIC (Staphylococcus aureus [13]): 4 µg/mL (≈ 9.69 µM) | MBC (Staphylococcus aureus [14]): 16 µg/mL (≈ 38.8 µM) | MIC (Staphylococcus aureus [14]): 4 µg/mL (≈ 9.69 µM) | MBC (Staphylococcus aureus [15]): 16 µg/mL (≈ 38.8 µM) | MIC (Staphylococcus aureus [15]): 4 µg/mL (≈ 9.69 µM) | MBC (Enterococcus faecalis): 32 µg/mL (≈ 77.6 µM) | MIC (Enterococcus faecalis): 8 µg/mL (≈ 19.4 µM) | MIC (Escherichia coli [16]): 64 µg/mL (≈ 155 µM)

C/C(=N\NC(=N)N)c1sc(-c2ccc(C#CCCN3CCC3)cc2)nc1C
Activity (J774): Non-Toxic | MBC [1]: 4 µg/mL (≈ 10.5 µM) | MIC [1]: 1 µg/mL (≈ 2.63 µM) | MBC (Staphylococcus aureus [2]): 4 µg/mL (≈ 10.5 µM) | MIC (Staphylococcus aureus [2]): 4 µg/mL (≈ 10.5 µM) | Activity (Staphylococcus aureus [17]): 31% | MBC (Staphylococcus aureus [3]): 8 µg/mL (≈ 21 µM) | MIC (Staphylococcus aureus [3]): 2 µg/mL (≈ 5.26 µM) | MBC (Listeria monocytogenes): 8 µg/mL (≈ 21 µM) | MIC (Listeria monocytogenes): 4 µg/mL (≈ 10.5 µM) | Activity (Staphylococcus aureus [18]): 41% | MBC (Staphylococcus aureus [4]): 16 µg/mL (≈ 42 µM) | MIC (Staphylococcus aureus [4]): 4 µg/mL (≈ 10.5 µM) | CL/F [19]: 5.17 mL/min | Activity (Staphylococcus aureus [20]): 99.7% | Vd [21]: 1.29 L | MBC (Staphylococcus aureus [7]): 8 µg/mL (≈ 21 µM) | MIC (Staphylococcus aureus [7]): 2 µg/mL (≈ 5.26 µM) | MIC (Escherichia coli [8]): 32 µg/mL (≈ 84.1 µM) | MBC (Staphylococcus aureus [9]): 8 µg/mL (≈ 21 µM) | MIC (Staphylococcus aureus [9]): 2 µg/mL (≈ 5.26 µM) | Activity (Staphylococcus aureus [22]): 98% | half-life [23]: 2.9 h | MBC (Enterococcus faecium): 8 µg/mL (≈ 21 µM) | MIC (Enterococcus faecium): 2 µg/mL (≈ 5.26 µM) | Activity (Staphylococcus aureus [24]): 100% | Activity (Staphylococcus aureus [25]): Active | MBC (Streptococcus pneumoniae [10]): 8 µg/mL (≈ 21 µM) | MIC (Streptococcus pneumoniae [10]): 2 µg/mL (≈ 5.26 µM) | AUC at 24 h [26]: 162 µg·h/mL | Activity (Staphylococcus aureus [27]): Dose-dependent effect | Cmax [28]: 15600 ng/mL | MBC (Staphylococcus aureus [11]): 4 µg/mL (≈ 10.5 µM) | MIC (Staphylococcus aureus [11]): 2 µg/mL (≈ 5.26 µM) | MBC (Streptococcus pneumoniae [12]): 8 µg/mL (≈ 21 µM) | MIC (Streptococcus pneumoniae [12]): 2 µg/mL (≈ 5.26 µM) | MBC (Staphylococcus aureus [13]): 4 µg/mL (≈ 10.5 µM) | MIC (Staphylococcus aureus [13]): 2 µg/mL (≈ 5.26 µM) | MBC (Staphylococcus aureus [14]): 8 µg/mL (≈ 21 µM) | MIC (Staphylococcus aureus [14]): 2 µg/mL (≈ 5.26 µM) | MBC (Staphylococcus aureus [15]): 8 µg/mL (≈ 21 µM) | MIC (Staphylococcus aureus [15]): 2 µg/mL (≈ 5.26 µM) | Tmax [29]: 1 h | MBC (Enterococcus faecalis): 16 µg/mL (≈ 42 µM) | MIC (Enterococcus faecalis): 4 µg/mL (≈ 10.5 µM) | solubility [30]: 500 µM (≈ 190 µg/mL) | MIC (Escherichia coli [16]): > 64 µg/mL
